Structures can show the parent of a compound that is named as a salt. Where two headings read alike, the source gives them in different places.
How the values were obtained:
ENT1 = target: T1, ENT1 (Homo sapiens, UniProt Q99808); assay: Inhibition of [3H]uridine uptake into WT HeLa; assay type: cell-based; conditions: for ENT1 % Inhibition (±SD): model-predicted compounds from MedChem Express Drug Repurposing Library; for inhibition at 20 µM: HeLa
T1 sequence (Q99808 1-456): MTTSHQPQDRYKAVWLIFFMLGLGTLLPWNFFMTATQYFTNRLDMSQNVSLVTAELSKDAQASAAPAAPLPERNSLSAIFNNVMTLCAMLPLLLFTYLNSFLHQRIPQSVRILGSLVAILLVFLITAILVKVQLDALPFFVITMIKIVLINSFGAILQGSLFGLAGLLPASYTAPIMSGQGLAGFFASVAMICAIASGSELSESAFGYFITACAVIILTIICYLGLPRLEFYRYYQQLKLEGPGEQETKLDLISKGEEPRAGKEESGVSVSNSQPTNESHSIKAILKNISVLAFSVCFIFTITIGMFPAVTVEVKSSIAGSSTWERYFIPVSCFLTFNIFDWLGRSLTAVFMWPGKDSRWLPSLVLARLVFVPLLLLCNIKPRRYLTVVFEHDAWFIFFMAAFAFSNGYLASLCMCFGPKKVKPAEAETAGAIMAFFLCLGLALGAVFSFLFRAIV

ENT2 = target: T2, ENT2 (Homo sapiens, UniProt Q14542); assay: Inhibition of [3H]uridine uptake into HeLa FlpIn cells overexpressing hENT2; assay type: cell-based; conditions: for inhibition at 20 µM: HeLa, read-out: ENT2 % Inhibition (20μM); for ENT2 % Inhibition (20μM): 20 μM compound, 5 min [3H]uridine uptake, HeLa cells overexpressing hENT2
T2 sequence (Q14542 1-456): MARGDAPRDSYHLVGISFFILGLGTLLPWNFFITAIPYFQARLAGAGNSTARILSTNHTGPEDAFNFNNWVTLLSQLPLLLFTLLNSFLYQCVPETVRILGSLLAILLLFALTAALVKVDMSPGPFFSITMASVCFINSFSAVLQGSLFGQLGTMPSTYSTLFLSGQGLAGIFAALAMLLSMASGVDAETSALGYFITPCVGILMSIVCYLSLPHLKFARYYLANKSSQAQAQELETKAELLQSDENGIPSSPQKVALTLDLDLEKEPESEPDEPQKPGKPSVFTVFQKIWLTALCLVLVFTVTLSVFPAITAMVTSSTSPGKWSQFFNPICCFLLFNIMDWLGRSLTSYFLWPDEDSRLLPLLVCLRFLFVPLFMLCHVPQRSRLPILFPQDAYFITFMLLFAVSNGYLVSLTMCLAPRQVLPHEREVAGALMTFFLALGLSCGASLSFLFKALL

[1] = read-out: ENT1 % Inhibition (±SD)
[2] = read-out: ENT1 % Inhibition (20μM)

inhibition at 20 µM (ENT1; [1]) [%] | IC50 (ENT2) [µM] | inhibition at 20 µM (ENT2) [%] | SMILES | further results
76.8 | – | – | COC(=O)C1=C(C)NC(C)=C(C(=O)OCCN(C)Cc2ccccc2)C1c1cccc([N+](=O)[O-])c1 (centres unmarked) [Nicardipine (hydrochloride), Nicardipine] | –
72.6 | – | – | COC(=O)C1=C(C)NC(C)=C(C(=O)OC)C1c1ccccc1[N+](=O)[O-] [Nifedipine] | –
78.3 | – | – | CCCCC1(CCCC)CN(c2ccccc2)c2cc(SC)c(OCC(=O)N[C@@H](C(=O)N[C@@H](CC)C(=O)O)c3ccc(O)cc3)cc2S(=O)(=O)N1 [Odevixibat] | –
51.3 | – | – | COc1ccc2[nH]c([S+]([O-])Cc3ncc(C)c(OC)c3C)nc2c1 (centres unmarked) [Omeprazole (sodium), Omeprazole] | –
54.7 | – | – | COc1cc(/C=C/c2ccc(O)cc2)cc(OC)c1 [Pterostilbene] | –
50.3 | – | – | COc1cc2c(Nc3ccc(Br)cc3F)ncnc2cc1OCC1CCN(C)CC1 [Vandetanib] | –
– | 262 ± 108 | 25.4 | CCc1oc2ccccc2c1C(=O)c1cc(Br)c(O)c(Br)c1 [benzbromarone] | IC50 (ENT1): 29.8 ± 2.1 µM; inhibition at 20 µM (ENT1; [2]): 79.6%
– | 3.82 ± 0.3 | 85.1 | CCOC(=O)c1ncn2c1CN(C)C(=O)c1cc(F)ccc1-2 [flumazenil] | IC50 (ENT1): 121 ± 0.7 µM; inhibition at 20 µM (ENT1; [2]): 20%
– | – | 54.6 | COc1cc2ncnc(Nc3ccc(F)c(Cl)c3)c2cc1OCCCN1CCOCC1 [gefitinib] | –
– | 172 ± 60.2 | 33 | CCCCc1nc(Cl)c(CO)n1Cc1ccc(-c2ccccc2-c2nn[nH]n2)cc1 [losartan] | –

Second part, the compound before the results:

SMILES | inhibition at 20 µM (ENT1; [1]) [%] | IC50 (ENT2) [µM] | inhibition at 20 µM (ENT2) [%] | further results
C#Cc1cccc(Nc2ncnc3cc(OC)c(OCCCN4CCOCC4)cc23)c1 [NRC-2694] | – | – | – | ENT1 % Inhibition (±SD) (ENT1; 20 μM): 67.27 (11.1) %
CC(=O)O[C@]1(C(C)=O)CC[C@H]2[C@@H]3C=C(C)C4=CC(=O)CC[C@@H]4[C@H]3CC[C@@]21C [Nomegestrol acetate] | 82.9 | – | – | –
C=CC(=O)N1CCC(c2ccc(C(N)=O)c(-c3ccc(Oc4ccccc4)cc3)n2)CC1 [Orelabrutinib] | 87.5 | – | – | –
CCn1cnc2c(-c3ccc(F)c(-c4ccc(S(=O)(=O)CC)cc4OC)c3)cnnc21 [PF-06372865] | – | – | – | ENT1 % Inhibition (±SD) (ENT1; 20 μM): 100.45 (0.02) %
Oc1ccc(C2=Cc3ccc(O)cc3OC2)cc1 [Phenoxodiol] | 69.3 | – | – | –
COc1cccc(-c2nccc3[nH]c(=O)c(-c4noc(C)n4)cc23)c1 [Radequinil] | – | – | – | ENT1 % Inhibition (±SD) (ENT1; 20 μM): 98.17 (0.19) %
COc1cc([C@H]2Oc3cc([C@H]4Oc5cc(O)cc(O)c5C(=O)[C@@H]4O)ccc3O[C@@H]2CO)ccc1O [Silybin A] | 67.5 | – | – | –
C/C=C/c1cc(OC)c(OC)cc1OC [alpha-Asarone] | – | – | – | ENT1 % Inhibition (±SD) (ENT1; 20 μM): 52.42 (3.92) %
Cc1ccc([C@@H]2O[C@H](CO)[C@@H](O)[C@H](O)[C@H]2O)cc1Cc1ccc(-c2ccc(F)cc2)s1 [canagliflozin] | – | – | – | ENT1 % Inhibition (20μM) (ENT1; 20 μM compound, 5 min [3H]uridine uptake, WT HeLa cells): 74.5%; IC50 (ENT1; read-out: ENT1 IC50 (μM) ± SD, 5 min uptake of ~10 nM [3H]uridine, WT HeLa cells): 24 ± 5.1 µM; ENT2 % Inhibition (20μM) (ENT2): 56.5%
O=c1[nH]c2ccccc2n1CCCN1CCC(n2c(=O)[nH]c3cc(Cl)ccc32)CC1 [domperidone] | – | 0.16 ± 0.04 | 64.3 | inhibition at 20 µM (ENT1; [2]): 24.4%
COc1cc(O)cc(O)c1C(=O)c1ccccc1 [isocotoin] | – | – | – | ENT1 inhibition of uridine uptake (Spectrum screen, text) (ENT1; 20 μM, Spectrum Collection screen (Table S1)): ~ 65%; IC50 (ENT1; read-out: predicted IC50 for ENT1, predicted from inhibition at 20 μM): 12 µM
NC[C@H]1O[C@H](O[C@H]2[C@H](O)[C@@H](O[C@H]3O[C@H](CO)[C@@H](O)[C@H](N)[C@H]3O)[C@H](N)C[C@@H]2N)[C@H](O)[C@@H](O)[C@@H]1O [kanamycin] | – | – | – | ENT1 % Inhibition (20μM) (ENT1): 43.7%; ENT2 % Inhibition (20μM) (ENT2): 11.7%
CC(=O)[C@H]1CC[C@H]2[C@@H]3C[C@H](C)C4=CC(=O)CC[C@]4(C)[C@H]3[C@@H](O)C[C@]12C [medrysone] | – | 210 ± 89.2 | 56.3 | IC50 (ENT1): 4.44 ± 0.9 µM; inhibition at 20 µM (ENT1; [2]): 95.1%
O=c1c(O)c(-c2cc(O)c(O)c(O)c2)oc2cc(O)cc(O)c12 [myricetin] | – | 28.2 ± 1.6 | – | IC50 (ENT1): 47.4 ± 1.7 µM; inhibition at 20 µM (ENT1; [2]): 82.4%
C[C@@H]1O[C@@H](O[C@H]2[C@H](Oc3cc(O)c4c(c3)O[C@H](c3ccc(O)cc3)CC4=O)O[C@H](CO)[C@@H](O)[C@@H]2O)[C@H](O)[C@H](O)[C@H]1O [naringin] | – | 266 ± 81.5 | 8.5 | IC50 (ENT1): 101 ± 8.9 µM; inhibition at 20 µM (ENT1; [2]): 24.4%
O=c1c(O)c(-c2ccc(O)c(O)c2)oc2cc(O)cc(O)c12 [quercetin] | – | 117 ± 24.6 | 84.3 | IC50 (ENT1): 20.6 ± 6.8 µM; inhibition at 20 µM (ENT1; [2]): 53.1%
